Reference: BigSolDB 2.1

C[C@H]1O[C@@H](n2cc(F)c(=O)[nH]c2=O)[C@H](O)[C@@H]1O
solubility (mole fraction)
Conditions | in 2-ethylhexanol | in methanol
278.15 K | 1.43e-05 | 0.00296
283.15 K | 2.23e-05 | 0.00334
288.15 K | 3.13e-05 | 0.00414
293.15 K | 4.66e-05 | 0.00466
298.15 K | 6.85e-05 | 0.00561
303.15 K | 9.63e-05 | 0.00653
308.15 K | 0.000139 | 0.00757
313.15 K | 0.000182 | 0.00849
318.15 K | 0.000252 | 0.0101
323.15 K | 0.000373 | 0.0113
328.15 K | 0.000496 | 0.0133
